Converted amounts (≈) assume the structure as drawn.
Experiment: Solubility in water
Format: physicochemical
Protocol: 50 mg of the photoinitiator of example 1 is added to 1 ml of distilled water and the suspension stirred at room temperature for 60 minutes. Non-dissolved material is filtered off, dried in vacuo and weighed. The solubility is approximately 5 mg/ml.

Which results are given for Cc1cc(C)c(C(=O)P(=O)(O)C(=O)c2c(C)cc(C)cc2C)c(C)c1 [Example 1, bis(2,4,6-trimethyl-benzoyl)-phosphinic acid]?
solubility at 60 min (thermodynamic from solid, distilled water, room temperature, 60 minutes stirring): ~5000 µg/mL (≈ 14 mM); solubility in water (in words) (water, preparation of formulation 4c): low solubility
